Results from patent publication US20170037028A1 (BAYER PHARMA AKTIENGESELLSCHAFT, priority 2013, published 2017).

Target: T1, GLUT1 (Homo sapiens, UniProt P11166)
T1 sequence (P11166 1-492): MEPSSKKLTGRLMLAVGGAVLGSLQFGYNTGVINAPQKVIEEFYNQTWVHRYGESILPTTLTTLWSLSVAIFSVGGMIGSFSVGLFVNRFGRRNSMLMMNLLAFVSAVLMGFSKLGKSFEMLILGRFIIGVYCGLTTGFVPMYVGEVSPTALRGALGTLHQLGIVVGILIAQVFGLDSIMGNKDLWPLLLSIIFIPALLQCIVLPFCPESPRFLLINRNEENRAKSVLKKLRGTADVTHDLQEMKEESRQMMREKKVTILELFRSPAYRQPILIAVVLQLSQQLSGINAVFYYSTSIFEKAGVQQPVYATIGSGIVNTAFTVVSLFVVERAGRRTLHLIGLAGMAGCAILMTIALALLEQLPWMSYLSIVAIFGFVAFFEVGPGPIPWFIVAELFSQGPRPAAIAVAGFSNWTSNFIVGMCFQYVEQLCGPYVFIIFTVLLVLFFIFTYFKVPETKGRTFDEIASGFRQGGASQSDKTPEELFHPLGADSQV
Assay: Indirect measurement of GLUT1 activity by quantification of intracellular ATP levels (glucose induced ATP increase)
Assay type: cell-based
Design: endogenous in cells; host or cells: DLD1 or CHO-K1
Conditions: read-out: IC50 regarding glucose induced ATP increase (GLUT1 inhibition)
Procedure, shortened: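 DLD1 or CHO-K1 cells were starved overnight in glucose-free medium with 1% FCS, then combined with an oxidative phosphorylation inhibitor. GLUT1 activity was read as glucose-induced ATP increase, GLUT2 as fructose-induced. Intracellular ATP was quantified by CellTiter-Glo luminescence.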

Q: How did the IC50 turn out when `CC(C)c1c(NC(=O)c2cc(C(N)=O)nc3ccccc23)c(C(F)(F)F)nn1Cc1ccc(C#N)cc1` [Example 317, N^4-[1-(4-cyanobenzyl)-5-isopropyl-3-(trifluoromethyl)-1H-pyrazol-4-yl]quinoline-2,4-dicarboxamide] was run?
A: 1050 nM

Q: For `CC(C)c1c(NC(=O)c2cc(C(N)=O)nc3cc(F)ccc23)c(C(F)(F)F)nn1Cc1ccc(C#N)cc1` [Example 318, N^4-[1-(4-cyanobenzyl)-5-isopropyl-3-(trifluoromethyl)-1H-pyrazol-4-yl]-7-fluoroquinoline-2,4-dicarboxamide], which IC50 is on record?
A: 352 nM

Q: How did the IC50 turn out when `CC(C)c1nn(Cc2ccc(C#N)cc2)c(C(F)(F)F)c1NC(=O)c1cc(C(N)=O)nc2ccccc12` [Example 319, N^4-[1-(4-cyanobenzyl)-3-isopropyl-5-(trifluoromethyl)-1H-pyrazol-4-yl]quinoline-2,4-dicarboxamide] was run?
A: 1 nM

Q: `CC(C)c1nn(Cc2ccc(C#N)cc2)c(C(F)(F)F)c1NC(=O)c1cc(C(N)=O)nc2cc(F)ccc12` [Example 320, N^4-[1-(4-cyanobenzyl)-3-isopropyl-5-(trifluoromethyl)-1H-pyrazol-4-yl]-7-fluoroquinoline-2,4-dicarboxamide] was tested. Which IC50 did it give?
A: 8 nM

Q: For `Cc1c(NC(=O)c2cc(C(N)=O)nc3cc(F)ccc23)c(C(C)C)nn1Cc1ccc(C#N)cc1` [Example 321, N^4-[1-(4-cyanobenzyl)-3-isopropyl-5-methyl-1H-pyrazol-4-yl]-7-fluoroquinoline-2,4-dicarboxamide], which IC50 is on record?
A: 7.2 nM

Q: `Cc1c(NC(=O)c2cc(C(N)=O)nc3ccccc23)c(C(C)C)nn1Cc1ccc(C#N)cc1` [Example 322, N^4-[1-(4-cyanobenzyl)-3-isopropyl-5-methyl-1H-pyrazol-4-yl]quinoline-2,4-dicarboxamide] was tested. Which IC50 did it give?
A: 1.9 nM

Q: `Cc1nn(Cc2ccc(C#N)cc2)c(C(C)C)c1NC(=O)c1cc(C(N)=O)nc2ccccc12` [Example 323, N^4-[1-(4-cyanobenzyl)-5-isopropyl-3-methyl-1H-pyrazol-4-yl]quinoline-2,4-dicarboxamide] was tested. Which IC50 did it give?
A: 39.4 nM

Q: With `Cc1c(NC(=O)c2cc(C(N)=O)nc3cc(F)c(Cl)cc23)c(C(C)C)nn1Cc1ccc(C#N)cc1` [Example 324, 6-chloro-N^4-[1-(4-cyanobenzyl)-3-isopropyl-5-methyl-1H-pyrazol-4-yl]-7-fluoroquinoline-2,4-dicarboxamide] as the compound, how does the IC50 read?
A: 1.9 nM

Q: With `CCc1nn(Cc2ccc(C#N)cc2)c(C)c1NC(=O)c1cc(C(N)=O)nc2ccccc12` [Example 325, N^4-[1-(4-cyanobenzyl)-3-ethyl-5-methyl-1H-pyrazol-4-yl]quinoline-2,4-dicarboxamide] as the compound, how does the IC50 read?
A: 3.9 nM

Q: `CCc1c(NC(=O)c2cc(C(N)=O)nc3ccccc23)c(C)nn1Cc1ccc(C#N)cc1` [Example 326, N^4-[1-(4-cyanobenzyl)-5-ethyl-3-methyl-1H-pyrazol-4-yl]quinoline-2,4-dicarboxamide] was tested. Which IC50 did it give?
A: 14.3 nM

Q: For `CCc1nn(Cc2ccc(C#N)cc2)c(C)c1NC(=O)c1cc(C(N)=O)nc2cc(F)ccc12` [Example 327, N^4-[1-(4-cyanobenzyl)-3-ethyl-5-methyl-1H-pyrazol-4-yl]-7-fluoroquinoline-2,4-dicarboxamide], which IC50 is on record?
A: 3.7 nM

Q: With `Cc1c(NC(=O)c2cc(C(N)=O)nc3c(Cl)cccc23)c(C(F)(F)F)nn1Cc1ccc(C#N)cc1` [Example 338, 8-chloro-N^4-[1-(4-cyanobenzyl)-5-methyl-3-(trifluoromethyl)-1H-pyrazol-4-yl]quinoline-2,4-dicarboxamide] as the compound, how does the IC50 read?
A: 2.7 nM

Q: `Cc1c(NC(=O)c2cc(C(=O)NCCCO)nc3cc(F)ccc23)c(C(F)(F)F)nn1Cc1ccc(C#N)cc1` [Example 341, N^4-[1-(4-cyanobenzyl)-5-methyl-3-(trifluoromethyl)-1H-pyrazol-4-yl]-7-fluoro-N^2-(3-hydroxypropyl)quinoline-2,4-dicarboxamide] was tested. Which IC50 did it give?
A: 290 nM

Q: For `Cc1c(NC(=O)c2cc(C(=O)NCCN3CCOCC3)nc3cc(F)ccc23)c(C(F)(F)F)nn1Cc1ccc(C#N)cc1` [Example 342, N^4-[1-(4-cyanobenzyl)-5-methyl-3-(trifluoromethyl)-1H-pyrazol-4-yl]-7-fluoro-N^2-[2-(morpholin-4-yl)ethyl]quinoline-2,4-dicarboxamide], which IC50 is on record?
A: 336 nM

Q: For `Cc1cc2c(C(=O)Nc3c(C(F)(F)F)nn(Cc4ccc(C#N)cc4)c3C)cc(C(N)=O)nc2cc1F` [Example 343, N^4-[1-(4-cyanobenzyl)-5-methyl-3-(trifluoromethyl)-1H-pyrazol-4-yl]-7-fluoro-6-methylquinoline-2,4-dicarboxamide], which IC50 is on record?
A: 0.7 nM

Q: `COCCNc1ccc2nc(C(N)=O)cc(C(=O)Nc3c(C(F)(F)F)nn(Cc4ccc(C#N)cc4)c3C)c2c1` [Example 344, N^4-[1-(4-cyanobenzyl)-5-methyl-3-(trifluoromethyl)-1H-pyrazol-4-yl]-6-[(2-methoxyethyl)amino]quinoline-2,4-dicarboxamide] was tested. Which IC50 did it give?
A: 5.8 nM

Q: Which IC50 does the source give for `Cc1c(NC(=O)c2cc(C(N)=O)nc3ccc(N4CCCCC4)cc23)c(C(F)(F)F)nn1Cc1ccc(C#N)cc1` [Example 345, N^4-[1-(4-cyanobenzyl)-5-methyl-3-(trifluoromethyl)-1H-pyrazol-4-yl]-6-(piperidin-1-yl)quinoline-2,4-dicarboxamide] here?
A: 7.2 nM

Q: How did the IC50 turn out when `Cc1nn(CCCc2ccc(C#N)cc2)c(C)c1NC(=O)c1cc(C(N)=O)nc2cc(F)c(Cl)cc12` [Example 346, 6-chloro-N^4-{1-[3-(4-cyanophenyl)propyl]-3,5-dimethyl-1H-pyrazol-4-yl}-7-fluoroquinoline-2,4-dicarboxamide] was run?
A: 0.6 nM

Q: `Cc1nn(CCCc2ccc(C#N)cc2)c(C)c1NC(=O)c1cc(C(N)=O)nc2ccccc12` [Example 347, N^4-{1-[3-(4-cyanophenyl)propyl]-3,5-dimethyl-1H-pyrazol-4-yl}quinoline-2,4-dicarboxamide] was tested. Which IC50 did it give?
A: 2.2 nM

Q: Which IC50 does the source give for `Cc1nn(CCCc2ccc(C#N)cc2)c(C)c1NC(=O)c1cc(C(F)(F)F)nc2ccc(Br)cc12` [Example 348, 6-bromo-N-{1-[3-(4-cyanophenyl)propyl]-3,5-dimethyl-1H-pyrazol-4-yl}-2-(trifluoromethyl)quinoline-4-carboxamide] here?
A: 6.1 nM

Q: `COc1cc(C(=O)Nc2c(C)nn(CCCc3ccc(C#N)cc3)c2C)c2ccccc2n1` [Example 349, N-{1-[3-(4-cyanophenyl)propyl]-3,5-dimethyl-1H-pyrazol-4-yl}-2-methoxyquinoline-4-carboxamide] was tested. Which IC50 did it give?
A: 15.7 nM

Q: Which IC50 does the source give for `Cc1nn(Cc2ccc(C#N)cn2)c(C)c1NC(=O)c1cc(C(N)=O)nc2ccc(Br)cc12` [Example 350, 6-bromo-N^4-{1-[(5-cyanopyridin-2-yl)methyl]-3,5-dimethyl-1H-pyrazol-4-yl}quinoline-2,4-dicarboxamide] here?
A: 1.1 nM

Q: How did the IC50 turn out when `Cc1nn(Cc2ccc(C#N)cn2)c(C)c1NC(=O)c1cc(C(N)=O)nc2cc(F)c(Cl)cc12` [Example 351, 6-chloro-N^4-{1-[(5-cyanopyridin-2-yl)methyl]-3,5-dimethyl-1H-pyrazol-4-yl}-7-fluoroquinoline-2,4-dicarboxamide] was run?
A: 1.6 nM

Q: `Cc1nn(Cc2ccc(C#N)cn2)c(C)c1NC(=O)c1cc(C(F)(F)F)nc2ccc(Br)cc12` [Example 353, 6-bromo-N-{1-[(5-cyanopyridin-2-yl)methyl]-3,5-dimethyl-1H-pyrazol-4-yl}-2-(trifluoromethyl)quinoline-4-carboxamide] was tested. Which IC50 did it give?
A: 2.3 nM

Q: `Cc1nn(Cc2ccc(C#N)cn2)c(C)c1NC(=O)c1cc(C(N)=O)nc2cc(F)c(F)cc12` [Example 354, N^4-{1-[(5-cyanopyridin-2-yl)methyl]-3,5-dimethyl-1H-pyrazol-4-yl}-6,7-difluoroquinoline-2,4-dicarboxamide] was tested. Which IC50 did it give?
A: 3.6 nM

Q: With `Cc1nn(Cc2ccc(C#N)cn2)c(C)c1NC(=O)c1cc(C(N)=O)nc2ccccc12` [Example 355, N^4-{1-[(5-cyanopyridin-2-yl)methyl]-3,5-dimethyl-1H-pyrazol-4-yl}quinoline-2,4-dicarboxamide] as the compound, how does the IC50 read?
A: 3.9 nM

Q: Which IC50 does the source give for `Cc1nn(Cc2ccc(C#N)cn2)c(C)c1NC(=O)c1cc(C(N)=O)nc2cc(F)ccc12` [Example 356, N^4-{1-[(5-cyanopyridin-2-yl)methyl]-3,5-dimethyl-1H-pyrazol-4-yl}-7-fluoroquinoline-2,4-dicarboxamide] here?
A: 9.3 nM

Q: How did the IC50 turn out when `COc1cc(C(=O)Nc2c(C)nn(Cc3ccc(C#N)cn3)c2C)c2ccccc2n1` [Example 357, N-{1-[(5-cyanopyridin-2-yl)methyl]-3,5-dimethyl-1H-pyrazol-4-yl}-2-methoxyquinoline-4-carboxamide] was run?
A: 28.8 nM

Q: For `Cc1c(NC(=O)c2cc(C(N)=O)nc3ccc(Br)cc23)c(C(F)(F)F)nn1Cc1ccc(C#N)cn1` [Example 358, 6-bromo-N^4-{1-[(5-cyanopyridin-2-yl)methyl]-5-methyl-3-(trifluoromethyl)-1H-pyrazol-4-yl}quinoline-2,4-dicarboxamide], which IC50 is on record?
A: 1.2 nM

Q: `Cc1c(NC(=O)c2cc(C(N)=O)nc3cc(F)c(Cl)cc23)c(C(F)(F)F)nn1Cc1ccc(C#N)cn1` [Example 359, 6-chloro-N^4-{1-[(5-cyanopyridin-2-yl)methyl]-5-methyl-3-(trifluoromethyl)-1H-pyrazol-4-yl}-7-fluoroquinoline-2,4-dicarboxamide] was tested. Which IC50 did it give?
A: 1.3 nM
